These compounds were tested against Platelet-activating factor receptor (Homo sapiens, UniProt P25105) (assay: EVALUATION OF THE INHIBITION OF PAFR ACTIVATION).
Experimental: USING AN ENDPOINT ASSAY HEK293 cells overexpressing human PAFR (produced in-house) are seeded into a Poly-D-Lysine coated 384 well white cell culture microtiter assay plate with lid (15.000 cells per well). Subsequently, the plates are incubated over night at 37 °C/5% CO2. On the next day, cells are being washed and subsequently, various concentrations of the test compounds (compounds in 100% DMSO; final concentratrion of DMSO in wells is 1%) are added to the assay plate via Echo 555 acoustic liquid handler. Plates are then incubated with lid for 90 minutes at 37 °C/5% CO2. Thereafter, PAF ligand (Cayman Chemical Company, Item no.: 60900) is added at a final concentration of 11 nM. Plates are then incubated with lid for 60 minutes at 37 °C/5% CO2. Then, 5 µl per well of Anti-IP1-Antibody-Cryptate solution and 5 µL per well of IP1-d2 solution are added to all wells of the plate and the plate is incubated for another 60 minutes light protected at room temperature. The emissions at 620 nm and 665 nm (Excitation wavelength: 320 nm) are measured using an Envision Reader (PerkinElmer).

Chain of Platelet-activating factor receptor (P25105 whole entry): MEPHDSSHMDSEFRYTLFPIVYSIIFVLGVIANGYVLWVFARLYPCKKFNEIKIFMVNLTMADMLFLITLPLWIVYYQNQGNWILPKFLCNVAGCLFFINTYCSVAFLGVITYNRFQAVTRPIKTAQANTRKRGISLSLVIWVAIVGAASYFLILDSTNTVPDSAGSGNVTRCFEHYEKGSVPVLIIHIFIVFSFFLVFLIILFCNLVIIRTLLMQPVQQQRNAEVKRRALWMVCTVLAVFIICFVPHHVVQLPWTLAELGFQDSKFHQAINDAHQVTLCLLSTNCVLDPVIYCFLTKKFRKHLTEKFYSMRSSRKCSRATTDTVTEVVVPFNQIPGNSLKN

Row | SMILES | IC50 [nM]
1 | Cc1ccccc1[C@H]1NCc2nnc(C)n2-c2sc3c(c21)C[C@H](C(=O)N1CCOCC1)C3 [WO2022101377, Example 63] | > 568
2 | Cc1nnc2n1-c1sc3c(c1C(c1ccccc1CO)NC2)CC(C(=O)N1CCOCC1)C3 (stereo unspecified) [WO2022101377, Example 60] | > 322
3 | COc1ccccc1C1NCc2nnc(C)n2-c2sc3c(c21)CC(C(=O)N1CCOCC1)C3 (stereo unspecified) [WO2022101377, Example 54] | > 322
4 | Cc1nnc2n1-c1sc3c(c1C(c1cc(F)cc(F)c1)NC2)CC(C(=O)N1CCOCC1)C3 (stereo unspecified) [WO2022101377, Example 58] | > 322
5 | Cc1nnc2n1-c1sc3c(c1C(c1ccccc1Cl)NC2)C[C@H](C(=O)N1CCCC2(CC2)C1)C3 (stereo partly specified) [WO2022101377, Example 66] | 2.7
6 | Cc1nnc2n1-c1sc3c(c1C(c1ccccc1C1CC1)NC2)CC(C(=O)N1CCOCC1)C3 (stereo unspecified) [WO2022101377, Example 59] | > 322
7 | Cc1nnc2n1-c1sc3c(c1C(c1ccccc1C(F)(F)F)NC2)CC(C(=O)N1CCOCC1)C3 (stereo unspecified) [WO2022101377, Example 56] | > 322
8 | CCCc1nnc2n1-c1sc3c(c1C(c1ccccc1Cl)NC2)CC(C(=O)N1CCOCC1)C3 (stereo unspecified) [WO2022101377, Example 80] | 110
9 | CSc1ccccc1C1NCc2nnc(C)n2-c2sc3c(c21)CC(C(=O)N1CCOCC1)C3 (stereo unspecified) [WO2022101377, Example 79] | 235
10 | Cc1nnc2n1-c1sc3c(c1C(c1ccccc1)NC2)CC(C(=O)N1CCOCC1)C3 (stereo unspecified) [WO2022101377, Example 74] | 102
11 | Cc1nnc2n1-c1sc3c(c1C(c1ccccc1O)NC2)CC(C(=O)N1CCOCC1)C3 (stereo unspecified) [WO2022101377, Example 61] | > 322

— BindingDB's records for patent WO2022101377 (Boehringer Ingelheim International, 2022)
